According to the OligoGym collection:
Where “and” joins values, the source holds several entries; their conditions need not be identical. Equal values may be shown once. HELM strings list units from the 5' end as sugar, base in round brackets, then linkage (d deoxyribose, r ribose, m 2'-O-methyl, p phosphodiester). Strings are as the collection lists them, not checked against the first reports. ss, as = sense and antisense strand; [lna] = locked nucleic acid (LNA); [hna] = hexitol nucleic acid; [s4r] = 4'-thioribose

Conditions: siRNA
Also: test system not given here.

RNA1{[hna](G)p.[hna](A)p.[hna](C)p.r(G)p.r(U)p.r(A)p.r(A)p.r(A)p.r(C)p.r(G)p.r(G)p.r(C)p.r(C)p.r(A)p.r(C)p.r(A)p.r(A)p.[hna](G)p.[hna](U)p.[hna](U)p.d(T)}|RNA2{r(A)p.[hna](C)p.r(U)p.r(U)p.r(G)p.r(U)p.r(G)p.r(G)p.r(C)p.r(C)p.r(G)p.r(U)p.r(U)p.r(U)p.r(A)p.r(C)p.r(G)p.[hna](U)p.[hna](C)p.[hna](G)p.d(T)}$$$RNA1{StrandType:ss}|RNA2{StrandType:as}$
target mRNA knockdown: 77.4%

RNA1{[s4r](A)p.[s4r](A)p.[s4r](A)p.[s4r](C)p.r(A)p.r(U)p.r(G)p.r(C)p.r(A)p.r(G)p.r(A)p.r(A)p.r(A)p.r(A)p.r(U)p.r(G)p.r(C)p.r(U)p.r(G)p.r(T)p.r(T)}|RNA2{[s4r](C)p.[s4r](A)p.r(G)p.r(C)p.r(A)p.r(U)p.r(U)p.r(U)p.r(U)p.r(C)p.r(U)p.r(G)p.r(C)p.r(A)p.r(U)p.r(G)p.r(U)p.[s4r](U)p.[s4r](U)p.r(T)p.r(T)}$$$RNA1{StrandType:ss}|RNA2{StrandType:as}$
target mRNA knockdown: 60.2%

RNA1{r(C)p.m(U)p.r(A)p.r(G)p.r(U)p.r(C)p.r(G)p.r(A)p.m(A)p.r(A)p.r(G)p.r(A)p.m(A)p.m(A)p.r(A)p.r(C)p.r(G)p.r(G)p.r(G)p.r(T)p.r(T)}|RNA2{r(C)p.r(C)p.r(C)p.r(G)p.r(U)p.r(U)p.r(U)p.r(U)p.r(C)p.r(U)p.r(U)p.r(U)p.r(C)p.r(G)p.r(A)p.r(C)p.m(U)p.r(A)p.r(G)p.r(T)p.r(T)}$$$RNA1{StrandType:ss}|RNA2{StrandType:as}$
target mRNA knockdown: 55%

RNA1{r(U)p.r(C)p.r(G)p.r(G)p.r(G)p.r(A)p.r(A)p.r(A)p.r(U)p.r(U)p.r(U)p.r(C)p.r(U)p.r(C)p.r(U)p.r(A)p.r(U)p.r(U)p.r(A)p.d(T)p.d(T)}|RNA2{r(U)p.r(A)p.r(A)p.r(U)p.r(A)p.r(G)p.r(A)p.r(G)p.r(A)p.r(A)p.r(A)p.r(U)p.r(U)p.r(U)p.r(C)p.r(C)p.r(C)p.r(G)p.r(A)p.d(T)p.d(T)}$$$RNA1{StrandType:ss}|RNA2{StrandType:as}$
target mRNA knockdown: 94% and 80%

RNA1{m(A)p.r(G)p.m(G)p.r(A)p.m(C)p.r(G)p.m(G)p.r(U)p.m(A)p.r(C)p.m(U)p.r(U)p.m(U)p.r(C)p.m(G)p.r(A)p.m(A)p.r(A)p.m(G)p.r(T)p.r(T)}|RNA2{r(C)p.m(U)p.m(U)p.m(U)p.r(C)p.r(G)p.r(A)p.r(A)p.r(A)p.r(G)p.m(U)p.r(A)p.r(C)p.r(C)p.r(G)p.m(U)p.r(C)p.r(C)p.m(U)p.r(T)p.r(T)}$$$RNA1{StrandType:ss}|RNA2{StrandType:as}$
target mRNA knockdown: 17%

RNA1{m(A)p.r(C)p.m(G)p.r(U)p.m(C)p.r(A)p.m(C)p.r(C)p.m(G)p.r(A)p.m(G)p.r(G)p.m(A)p.r(G)p.m(A)p.r(A)p.m(G)p.r(U)p.m(A)p.r(T)p.r(T)}|RNA2{r(U)p.r(A)p.r(C)p.r(U)p.r(U)p.r(C)p.r(U)p.r(C)p.r(C)p.r(U)p.r(C)p.m(G)p.m(G)p.r(U)p.r(G)p.r(A)p.r(C)p.m(G)p.r(U)p.r(T)p.r(T)}$$$RNA1{StrandType:ss}|RNA2{StrandType:as}$
target mRNA knockdown: 31%

RNA1{r(A)p.r(G)p.r(A)p.r(U)p.r(G)p.r(U)p.r(U)p.r(C)p.r(U)p.r(C)p.r(G)p.r(U)p.r(A)p.r(A)p.r(G)p.r(G)p.r(A)p.r(C)p.r(G)p.r(T)p.r(T)}|RNA2{r(C)p.r(G)p.r(U)p.r(C)p.r(C)p.r(U)p.m(U)p.r(A)p.r(C)p.r(G)p.r(A)p.r(G)p.r(A)p.r(A)p.r(C)p.r(A)p.r(U)p.r(C)p.r(U)p.r(T)p.r(T)}$$$RNA1{StrandType:ss}|RNA2{StrandType:as}$
target mRNA knockdown: 69%

RNA1{r(G)p.r(A)p.r(C)p.r(G)p.r(U)p.r(A)p.r(A)p.r(A)p.r(C)p.r(G)p.r(G)p.r(C)p.r(C)p.r(A)p.r(C)p.r(A)p.r(A)p.r(G)p.r(U)p.r(U)p.r(C)}|RNA2{r(A)p.r(C)p.r(U)p.r(U)p.r(G)p.r(U)p.r(G)p.r(G)p.r(C)p.r(C)p.r(G)p.r(U)p.r(U)p.r(U)p.r(A)p.r(C)p.r(G)p.r(U)p.[lna](C)p.[lna](G)p.r(C)}$$$RNA1{StrandType:ss}|RNA2{StrandType:as}$
target mRNA knockdown: 86.3%
